Results on ten compounds are retold here after patent US6387885B1, “3′,3′-N-bis-desmethyl-3′-N-cycloalkyl erythromycin derivatives as LHRH antagonists” (Abbott Laboratories, priority 1998, dated 2002).

For one data set, the target named is T1, LHRH rat pituitary receptor (Rattus norvegicus, UniProt P30969).
T1 construct: from tissue; host or cells: rat pituitary
T1 sequence (P30969 1-327): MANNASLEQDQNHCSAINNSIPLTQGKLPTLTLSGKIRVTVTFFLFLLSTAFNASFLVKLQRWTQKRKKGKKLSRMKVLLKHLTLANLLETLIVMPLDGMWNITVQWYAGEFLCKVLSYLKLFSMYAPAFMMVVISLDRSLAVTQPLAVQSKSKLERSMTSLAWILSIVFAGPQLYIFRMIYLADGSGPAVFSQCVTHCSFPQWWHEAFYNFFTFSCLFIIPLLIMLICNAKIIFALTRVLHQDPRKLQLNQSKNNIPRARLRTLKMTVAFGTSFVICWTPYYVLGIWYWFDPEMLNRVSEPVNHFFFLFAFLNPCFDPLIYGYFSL
Put plainly: LHRH rat pituitary receptor binding (in vitro). The settings on record: method of Haviv et al. J. Med. Chem. 32: 2340-2344 (1989), read-out: pKI (receptor binding affinity; negative logarithm of the equilibrium dissociation constant) (converted). On the procedure:
Representative compounds of the present invention were evaluated in in vitro tests for LHRH rat pituitary receptor binding (pKI). The tests employed the methods detailed in F. Haviv, et al. J. Med. Chem., 32: 2340-2344 (1989). The receptor binding affinity (pKI) is the negative logarithms of the equilibrium dissociation constants.
Take `CC[C@H]1OC(=O)[C@H](C)[C@@H](O[C@H]2C[C@@](C)(OC)[C@@H](O)[C@H](C)O2)[C@H](C)[C@@H](O[C@@H]2O[C@H](C)C[C@H](N3C(C)CCCC3C)[C@H]2O)[C@](C)(OC)C[C@@H](C)C(=O)[C@H](C)[C@H]2N(CCc3ccc(Cl)c(Cl)c3)C(=O)O[C@]12C` (single isomer, unassigned) [Example 7, 3′-Desamino-3′-N-(2,6-dimethylpiperidinyl)-11-deoxy-11-[carboxy-(3,4-dichlorophenethylamino)]-6-O-methyl-erythromycin A 11,12-(cyclic carbamate)]: the Ki was 2.57 nM.
With `CC[C@H]1OC(=O)[C@H](C)[C@@H](O[C@H]2C[C@@](C)(OC)[C@@H](O)[C@H](C)O2)[C@H](C)[C@@H](O[C@@H]2O[C@H](C)C[C@H](N3C(C)CCC3C)[C@H]2O)[C@](C)(OC)C[C@@H](C)C(=O)[C@H](C)[C@H]2N(CCc3ccc(Cl)c(Cl)c3)C(=O)O[C@]12C` (single isomer, unassigned) [Example 5, 3′-Desamino-3′S-N-(2,5-dimethylpyrrolidinyl)-11-deoxy-11-[carboxy-(3,4-dichlorophenethylamino)]-6-O-methyl-erythromycin A 11,12-(cyclic carbamate)], the Ki is 1.23 nM.
The same measure, in the same setting: the result for `CC[C@H]1OC(=O)[C@H](C)[C@@H](O[C@H]2C[C@@](C)(OC)[C@@H](O)[C@H](C)O2)[C@H](C)[C@@H](O[C@@H]2O[C@H](C)C[C@H](N3CCCCC3)[C@H]2O)[C@](C)(OC)C[C@@H](C)C(=O)[C@H](C)[C@H]2N(CCc3ccc(Cl)c(Cl)c3)C(=O)O[C@]12C` [Example 3, 3′-Desamino-3′-N-piperidinyl-11-deoxy-11-[carboxy-(3,4-dichlorophenethylamino)]-6-O-methyl-erythromycin A 11,12-(cyclic carbamate)] reads 3.55 nM; that for `CCC1CCC(CC)N1[C@H]1C[C@@H](C)O[C@@H](O[C@@H]2[C@@H](C)[C@H](O[C@H]3C[C@@](C)(OC)[C@@H](O)[C@H](C)O3)[C@@H](C)C(=O)O[C@H](CC)[C@@]3(C)OC(=O)N(CCc4ccc(F)c(Cl)c4)[C@@H]3[C@@H](C)C(=O)[C@H](C)C[C@@]2(C)OC)[C@@H]1O` (mixture of isomers) [Example 10, 3′-Desamino-3′-N-(2,5-diethylpyrrolidinyl)-11-deoxy-11-[carboxy-(3-chloro-4-fluorophenethylamino)]-6-O-methyl-erythromycin A 11,12-(cyclic carbamate)], 0.676 nM.
The same measure, in the same setting: to `CC[C@H]1OC(=O)[C@H](C)[C@@H](O[C@H]2C[C@@](C)(OC)[C@@H](O)[C@H](C)O2)[C@H](C)[C@@H](O[C@@H]2O[C@H](C)C[C@H](N3C(C)CCCC3C)[C@H]2O)[C@](C)(OC)C[C@@H](C)C(=O)[C@H](C)[C@H]2N(CCc3ccc(F)c(Cl)c3)C(=O)O[C@]12C` (single isomer, unassigned) [Example 8, 3′-Desamino-3′-N-(2,6-dimethylpiperidinyl)-11-deoxy-11-[carboxy-(3-chloro-4-fluorophenethylamino)]-6-O-methyl-erythromycin A 11,12-(cyclic carbamate)] belongs 2.45 nM; to `CC[C@H]1OC(=O)[C@H](C)[C@@H](O[C@H]2C[C@@](C)(OC)[C@@H](O)[C@H](C)O2)[C@H](C)[C@@H](O[C@@H]2O[C@H](C)C[C@H](N3C(C)CCC3C)[C@H]2O)[C@](C)(OC)C[C@@H](C)C(=O)[C@H](C)[C@H]2N(CCc3ccc(F)c(Cl)c3)C(=O)O[C@]12C` (single isomer, unassigned) [Example 6, 3′-Desamino-3′-N-(2,5-dimethylpyrrolidinyl)-11-deoxy-11-[carboxy-(3-chloro-4-fluorophenethylamino)]-6-O-methyl-erythromycin A 11,12-(cyclic carbamate)], 0.759 nM.
As to `CC[C@H]1OC(=O)[C@H](C)[C@@H](O[C@H]2C[C@@](C)(OC)[C@@H](O)[C@H](C)O2)[C@H](C)[C@@H](O[C@@H]2O[C@H](C)C[C@H](N3C(C4CC4)CCCC3C3CC3)[C@H]2O)[C@](C)(OC)C[C@@H](C)C(=O)[C@H](C)[C@H]2N(CCc3ccc(F)c(Cl)c3)C(=O)O[C@]12C` (stereo partly drawn) [Example 11, 3′-Desamino-3′-N-(2,6-biscyclopropylpiperidinyl)-11-deoxy-11-[carboxy-(3-chloro-4-fluorophenethylamino)]-6-O-methyl-erythromycin A 11,12-(cyclic carbamate)], the Ki was 1.17 nM.
Consider `CC[C@H]1OC(=O)[C@H](C)[C@@H](O[C@H]2C[C@@](C)(OC)[C@@H](O)[C@H](C)O2)[C@H](C)[C@@H](O[C@@H]2O[C@H](C)C[C@H](N3CCCC3)[C@H]2O)[C@](C)(OC)C[C@@H](C)C(=O)[C@H](C)[C@H]2N(CCc3ccc(Cl)c(Cl)c3)C(=O)O[C@]12C` [Example 1, 3′-Desamino-(3′S)-N-pyrrolidinyl-11-deoxy-11-[carboxy-(3,4-dichlorophenethylamino)]-6-O-methyl-erythromycin A 11,12-(cyclic carbamate)], for which the Ki is 1.82 nM.
Same read-out and setting: to `CCC1CCC(CC)N1[C@H]1C[C@@H](C)O[C@@H](O[C@@H]2[C@@H](C)[C@H](O[C@H]3C[C@@](C)(OC)[C@@H](O)[C@H](C)O3)[C@@H](C)C(=O)O[C@H](CC)[C@@]3(C)OC(=O)N(CCc4ccc(Cl)c(Cl)c4)[C@@H]3[C@@H](C)C(=O)[C@H](C)C[C@@]2(C)OC)[C@@H]1O` (stereo partly drawn) [Example 9, 3′-Desamino-3′-N-(2,5-diethylpyrrolidinyl)-11-deoxy-11-[carboxy-(3,4-dichlorophenethylamino)]-6-O-methyl-erythromycin A 11,12-(cyclic carbamate)] belongs 1.74 nM; to `CC[C@H]1OC(=O)[C@H](C)[C@@H](O[C@H]2C[C@@](C)(OC)[C@@H](O)[C@H](C)O2)[C@H](C)[C@@H](O[C@@H]2O[C@H](C)C[C@H](N3CCCCC3)[C@H]2O)[C@](C)(OC)C[C@@H](C)C(=O)[C@H](C)[C@H]2N(CCc3ccc(F)c(Cl)c3)C(=O)O[C@]12C` [Example 4, 3′-Desamino-3′-N-piperidinyl-11-deoxy-11-[carboxy-(3-chloro-4-fluorophenethylamino)]-6-O-methyl-erythromycin A 11,12-(cyclic carbamate)], 5.62 nM.

Tested on in a further data set: not given
Assay: not given
Settings: not given
For the compound `CC[C@H]1OC(=O)[C@H](C)[C@@H](O[C@H]2C[C@@](C)(OC)[C@@H](O)[C@H](C)O2)[C@H](C)[C@@H](O[C@@H]2O[C@H](C)C[C@H](N3C(C)CCC3C)[C@H]2O)[C@](C)(OC)C[C@@H](C)C(=O)[C@H](C)[C@H]2N(CCc3ccc(Cl)c(Cl)c3)C(=O)O[C@]12C` (single isomer, unassigned) [Example 5, 3′-Desamino-3′S-N-(2,5-dimethylpyrrolidinyl)-11-deoxy-11-[carboxy-(3,4-dichlorophenethylamino)]-6-O-methyl-erythromycin A 11,12-(cyclic carbamate)], the melting point is 258 to 260 °C.
The compound `CC[C@H]1OC(=O)[C@H](C)[C@@H](O[C@H]2C[C@@](C)(OC)[C@@H](O)[C@H](C)O2)[C@H](C)[C@@H](O[C@@H]2O[C@H](C)C[C@H](N3C(C)CCC3C)[C@H]2O)[C@](C)(OC)C[C@@H](C)C(=O)[C@H](C)[C@H]2N(CCc3ccc(F)c(Cl)c3)C(=O)O[C@]12C` (single isomer, unassigned) [Example 6, 3′-Desamino-3′-N-(2,5-dimethylpyrrolidinyl)-11-deoxy-11-[carboxy-(3-chloro-4-fluorophenethylamino)]-6-O-methyl-erythromycin A 11,12-(cyclic carbamate)] came in with a melting point of 276 to 278 °C.

By melting point is commonly meant the temperature of the solid-liquid transition.
